Experimental data: PubChem BioAssay (NCI)
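Values below derive from 48-hour exposures of cells grown in 96-well plates, with endpoints linearly interpolated between the two concentrations bracketing the appropriate inhibition level. Here, GI50 denotes the concentration required for 50% inhibition of growth. TGI: total growth inhibition.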

Experiments:
Test in all cases: inhibition of tumour cell growth, NCI panel, 48 h
MDA-MB-231 breast = test system: MDA-MB-231 breast
PC-3 prostate = test system: PC-3 prostate
M14 melanoma = test system: M14 melanoma
HCT-116 colon = test system: HCT-116 colon
LOX IMVI melanoma = test system: LOX IMVI melanoma
RPMI-8226 leukemia = test system: RPMI-8226 leukemia
SF-539 CNS = test system: SF-539 CNS
HL-60(TB) leukemia = test system: HL-60(TB) leukemia
OVCAR-5 ovarian = test system: OVCAR-5 ovarian
SF-268 CNS = test system: SF-268 CNS
SK-MEL-28 melanoma = test system: SK-MEL-28 melanoma
CAKI-1 renal = test system: CAKI-1 renal
T-47D breast = test system: T-47D breast
HCT-15 colon = test system: HCT-15 colon
HT29 colon = test system: HT29 colon
SNB-19 CNS = test system: SNB-19 CNS
SK-MEL-5 melanoma = test system: SK-MEL-5 melanoma
A549 NSCLC = test system: A549 NSCLC
COLO 205 colon = test system: COLO 205 colon
SW-620 colon = test system: SW-620 colon
SR leukemia = test system: SR leukemia
U251 CNS = test system: U251 CNS
HS 578T breast = test system: HS 578T breast
UO-31 renal = test system: UO-31 renal
EKVX NSCLC = test system: EKVX NSCLC
NCI-H226 lung = test system: NCI-H226 lung
HOP-62 NSCLC = test system: HOP-62 NSCLC
NCI/ADR-RES ovarian = test system: NCI/ADR-RES ovarian
BT-549 breast = test system: BT-549 breast
TK-10 renal = test system: TK-10 renal
UACC-257 melanoma = test system: UACC-257 melanoma
MDA-MB-435 = test system: MDA-MB-435
DU-145 prostate = test system: DU-145 prostate
OVCAR-4 ovarian = test system: OVCAR-4 ovarian
RXF 393 renal = test system: RXF 393 renal
NCI-H460 lung = test system: NCI-H460 lung
786-0 renal = test system: 786-0 renal
HCC-2998 colon = test system: HCC-2998 colon
ACHN renal = test system: ACHN renal
K-562 leukemia = test system: K-562 leukemia
MOLT-4 leukemia = test system: MOLT-4 leukemia
SK-OV-3 ovarian = test system: SK-OV-3 ovarian
OVCAR-3 ovarian = test system: OVCAR-3 ovarian
SNB-75 CNS = test system: SNB-75 CNS
MALME-3M melanoma = test system: MALME-3M melanoma
KM12 colon = test system: KM12 colon
MCF7 breast = test system: MCF7 breast
SK-MEL-2 melanoma = test system: SK-MEL-2 melanoma
HOP-92 NSCLC = test system: HOP-92 NSCLC
CCRF-CEM leukemia = test system: CCRF-CEM leukemia
OVCAR-8 ovarian = test system: OVCAR-8 ovarian
SN12C renal = test system: SN12C renal
IGROV1 ovarian = test system: IGROV1 ovarian
A498 renal = test system: A498 renal
UACC-62 melanoma = test system: UACC-62 melanoma
SF-295 CNS = test system: SF-295 CNS
NCI-H522 lung = test system: NCI-H522 lung
NCI-H23 lung = test system: NCI-H23 lung

Question: Which results are given for O=c1oc2ccc(Br)cc2c(=O)n1-c1ccc(Br)cc1F?
Answer: GI50 (MDA-MB-231 breast): 551 nM; TGI (MDA-MB-231 breast): 4810 nM; GI50 (PC-3 prostate): 864 nM; TGI (PC-3 prostate): 6770 nM; GI50 (M14 melanoma): 816 nM; TGI (M14 melanoma): 3590 nM; GI50 (HCT-116 colon): 555 nM; TGI (HCT-116 colon): 2100 nM; GI50 (LOX IMVI melanoma): 469 nM; TGI (LOX IMVI melanoma): 2540 nM; GI50 (RPMI-8226 leukemia): 264 nM; TGI (RPMI-8226 leukemia): 1060 nM; GI50 (SF-539 CNS): 501 nM; TGI (SF-539 CNS): 3540 nM; GI50 (HL-60(TB) leukemia): 538 nM; TGI (HL-60(TB) leukemia): 2530 nM; GI50 (OVCAR-5 ovarian): 3100 nM; TGI (OVCAR-5 ovarian): 48100 nM; GI50 (SF-268 CNS): 688 nM; TGI (SF-268 CNS): 7100 nM; GI50 (SK-MEL-28 melanoma): 392 nM; TGI (SK-MEL-28 melanoma): 1950 nM; GI50 (CAKI-1 renal): 507 nM; TGI (CAKI-1 renal): 3930 nM; GI50 (T-47D breast): 341 nM; TGI (T-47D breast): 3840 nM; GI50 (HCT-15 colon): 733 nM; TGI (HCT-15 colon): 7020 nM; GI50 (HT29 colon): 3090 nM; TGI (HT29 colon): 12700 nM; GI50 (SNB-19 CNS): 378 nM; TGI (SNB-19 CNS): 46700 nM; GI50 (SK-MEL-5 melanoma): 269 nM; TGI (SK-MEL-5 melanoma): 853 nM; GI50 (A549 NSCLC): 2050 nM; TGI (A549 NSCLC): > 35500 nM; GI50 (COLO 205 colon): 3720 nM; TGI (COLO 205 colon): 14000 nM; GI50 (SW-620 colon): 1220 nM; TGI (SW-620 colon): 11200 nM; GI50 (SR leukemia): 712 nM; TGI (SR leukemia): 6880 nM; GI50 (U251 CNS): 725 nM; TGI (U251 CNS): 9820 nM; GI50 (HS 578T breast): 380 nM; TGI (HS 578T breast): 3790 nM; GI50 (UO-31 renal): 442 nM; TGI (UO-31 renal): 2480 nM; GI50 (EKVX NSCLC): 1510 nM; TGI (EKVX NSCLC): 8240 nM; GI50 (NCI-H226 lung): 1260 nM; TGI (NCI-H226 lung): 4720 nM; GI50 (HOP-62 NSCLC): 1350 nM; TGI (HOP-62 NSCLC): 4790 nM; GI50 (NCI/ADR-RES ovarian): 553 nM; TGI (NCI/ADR-RES ovarian): 4330 nM; GI50 (BT-549 breast): 452 nM; TGI (BT-549 breast): 2200 nM; GI50 (TK-10 renal): 2860 nM; TGI (TK-10 renal): 12800 nM; GI50 (UACC-257 melanoma): 640 nM; TGI (UACC-257 melanoma): 3760 nM; GI50 (MDA-MB-435): 640 nM; TGI (MDA-MB-435): 8870 nM; GI50 (DU-145 prostate): 1140 nM; TGI (DU-145 prostate): 21400 nM; GI50 (OVCAR-4 ovarian): 539 nM; TGI (OVCAR-4 ovarian): > 100000 nM; GI50 (RXF 393 renal): 680 nM; TGI (RXF 393 renal): 3730 nM; GI50 (NCI-H460 lung): 511 nM; TGI (NCI-H460 lung): 11100 nM; GI50 (786-0 renal): 2060 nM; TGI (786-0 renal): 4910 nM; GI50 (HCC-2998 colon): 2470 nM; TGI (HCC-2998 colon): 8040 nM; GI50 (ACHN renal): 933 nM; TGI (ACHN renal): 8460 nM; GI50 (K-562 leukemia): 465 nM; TGI (K-562 leukemia): > 100000 nM; GI50 (MOLT-4 leukemia): 1310 nM; TGI (MOLT-4 leukemia): 4160 nM; GI50 (SK-OV-3 ovarian): 560 nM; TGI (SK-OV-3 ovarian): 4970 nM; GI50 (OVCAR-3 ovarian): 477 nM; TGI (OVCAR-3 ovarian): 6620 nM; GI50 (SNB-75 CNS): 289 nM; TGI (SNB-75 CNS): 2450 nM; GI50 (MALME-3M melanoma): 436 nM; TGI (MALME-3M melanoma): 2550 nM; GI50 (KM12 colon): 2060 nM; TGI (KM12 colon): 4930 nM; GI50 (MCF7 breast): 1070 nM; TGI (MCF7 breast): 8170 nM; GI50 (SK-MEL-2 melanoma): 371 nM; TGI (SK-MEL-2 melanoma): 1880 nM; GI50 (HOP-92 NSCLC): 191 nM; TGI (HOP-92 NSCLC): 683 nM; GI50 (CCRF-CEM leukemia): 1000 nM; TGI (CCRF-CEM leukemia): 4950 nM; GI50 (OVCAR-8 ovarian): 1220 nM; TGI (OVCAR-8 ovarian): 9140 nM; GI50 (SN12C renal): 458 nM; TGI (SN12C renal): 3620 nM; GI50 (IGROV1 ovarian): 337 nM; TGI (IGROV1 ovarian): 11900 nM; GI50 (A498 renal): 245 nM; TGI (A498 renal): 774 nM; GI50 (UACC-62 melanoma): 223 nM; TGI (UACC-62 melanoma): 772 nM; GI50 (SF-295 CNS): 1490 nM; TGI (SF-295 CNS): 3290 nM; GI50 (NCI-H522 lung): 351 nM; TGI (NCI-H522 lung): 2920 nM; GI50 (NCI-H23 lung): 369 nM; TGI (NCI-H23 lung): 2650 nM
